Results on two compounds are retold here after a compilation of properties of binary mixtures (doi:10.1016/j.molliq.2009.05.001).

This data set is described as follows: xn = mol fraction of the nth substance listed. The following applies: 101 kPa; for viscosity: 298.1 K; for electrical conductivity: 298.15 K.

As to `CC[n+]1ccn(C)c1.N#C[N-]C#N` + CC[n+]1ccn(C)c1.F[B-](F)(F)F, the viscosity (in general, the resistance of a fluid to flow) (x2 = 0) is recorded as 17.4 mPa·s; the viscosity (x2 = 0.2164) is listed as 19.7 mPa·s; the viscosity (x2 = 0.3218) worked out at 21.4 mPa·s; the viscosity (x2 = 0.474) is 23 mPa·s. In addition, the electrical conductivity (x2 = 0) is 2.83 S/m; the electrical conductivity (x2 = 0.0448) worked out at 2.79 S/m; the electrical conductivity (x2 = 0.2164) came to 2.61 S/m; the electrical conductivity (x2 = 0.3218) stood at 2.49 S/m; the electrical conductivity (x2 = 0.474) amounted to 2.3 S/m; the electrical conductivity (x2 = 0.6254) was determined as 2.1 S/m. Moreover, the electrical conductivity is, setting by setting: (x2 = 0.7856) 1.87 S/m; (x2 = 0.9447) 1.64 S/m.

With `CC[n+]1ccn(C)c1.F[B-](F)(F)F` + CC[n+]1ccn(C)c1.N#C[N-]C#N, where the note is “x1 = 1”, the viscosity is 36.8 mPa·s and the electrical conductivity is 1.55 S/m.
